Values after ≈ are worked out from the molar mass of the structure shown. Read-outs that look alike come from different tables or passages of the source.
Legend:
Assay in all cases: MIC by agar dilution method
Type in all cases: cell-based
Candida albicans 579a = details: read-out: MIC II
Description: (§1) Minimal inhibitory concentrations (MICs) were determined by an agar dilution method. The test compounds were serially diluted in MeOH and 0.2 mL portions were mixed with 20 mL of molten, cooled Sabouraud dextrose agar (Difco). Yeast cell inoculum was prepared by growing cultures on Sabouraud dextrose agar for 18 hours at 32° C. and suspending the cells in phosphate buffered saline. Filamentous fungi were grown under the same conditions for 4 days to obtain spores. The inoculum level for all cultures was adjusted to 10^4 cells using a Petroff-Hauser cell counter. The glutarimide antifungal compounds cycloheximide or amphotericin B were used as a control. Inoculated test plates were incubated at 32° C. and examined after 20 hours.

[1] = tested on: Candida albicans ATCC 10231
Description: as §1

[2] = tested on: Candida albicans ATCC 38247
Description: as §1

[3] = tested on: Candida albicans ATCC 62376
Description: as §1

Candida albicans CCH 442 = details: CCH442; Table 6c, 3rd value column (head printed II); III Candida albicans CCH 442; agar dilution; read-out: MIC II
Description: as §1

[4] = Table 6c, II Candida albicans 579a, agar dilution
[5] = ATCC10231, Table 6c, I Candida albicans ATCC 10231, agar dilution, read-out: MIC I
[6] = ATCC38247, Table 6c, IV Candida albicans ATCC 38247, agar dilution, read-out: MIC IV
[7] = ATCC62376, Table 6c, V Candida albicans ATCC 62376, agar dilution, read-out: MIC V

Row | MIC (Candida albicans 579a; [4]) [µg/mL] | MIC [1, 5] [µg/mL] | MIC [2, 6] [µg/mL] | MIC [3, 7] [µg/mL] | MIC (Candida albicans CCH 442) [µg/mL] | SMILES | MIC (Candida albicans 579a; Candida albicans, 579A) [µg/mL] | MIC ([1]; Candida albicans, ATCC10231, read-out: MIC I) [µg/mL] | MIC ([2]; Candida albicans, ATCC38247, read-out: MIC IV) [µg/mL] | MIC ([3]; Candida albicans, ATCC62376, read-out: MIC V) [µg/mL]
1 | 1.56 (≈ 1.44 µM) | 6.25 (≈ 5.77 µM) | 6.25 (≈ 5.77 µM) | 1.56 (≈ 1.44 µM) | 6.25 (≈ 5.77 µM) | CCCCC/C=C/C=C/[C@@H](O)C/C=C/C=C/C(=O)O[C@@H]1[C@@H](O)[C@H](c2c(O)cc(O)cc2CO)O[C@H](CO)[C@H]1O[C@@H]1O[C@H](COC(=O)c2ccc(-c3ccccc3OC)cc2)[C@H](O)[C@H](O)[C@H]1O[C@@H]1O[C@H](CO)[C@H](O)[C@H](O)[C@H]1O [Example 40] |  |  |  | 
2 | 0.78 (≈ 0.72 µM) | 1.56 (≈ 1.44 µM) | 1.56 (≈ 1.44 µM) | 3.12 (≈ 2.88 µM) | 1.56 (≈ 1.44 µM) | CCCCC/C=C/C=C/[C@@H](O)C/C=C/C=C/C(=O)O[C@@H]1[C@@H](O)[C@H](c2c(O)cc(O)cc2CO)O[C@H](CO)[C@H]1O[C@@H]1O[C@H](COC(=O)c2cccc(-c3ccc(OC)cc3)c2)[C@H](O)[C@H](O)[C@H]1O[C@@H]1O[C@H](CO)[C@H](O)[C@H](O)[C@H]1O [Example 39] |  |  |  | 
3 | 1.56 (≈ 1.46 µM) | 3.12 (≈ 2.92 µM) | 3.12 (≈ 2.92 µM) | 3.12 (≈ 2.92 µM) | 3.12 (≈ 2.92 µM) | CCCCC/C=C/C=C/[C@@H](O)C/C=C/C=C/C(=O)O[C@@H]1[C@@H](O)[C@H](c2c(O)cc(O)cc2CO)O[C@H](CO)[C@H]1O[C@@H]1O[C@H](COC(=O)c2ccc(Oc3ccccc3)cc2)[C@H](O)[C@H](O)[C@H]1O[C@@H]1O[C@H](CO)[C@H](O)[C@H](O)[C@H]1O [Example 31] |  |  |  | 
4 | 0.78 (≈ 0.741 µM) | 0.78 (≈ 0.741 µM) | 1.56 (≈ 1.48 µM) | 0.78 (≈ 0.741 µM) | 0.78 (≈ 0.741 µM) | CCCCC/C=C/C=C/[C@@H](O)C/C=C/C=C/C(=O)O[C@@H]1[C@@H](O)[C@H](c2c(O)cc(O)cc2CO)O[C@H](CO)[C@H]1O[C@@H]1O[C@H](COC(=O)c2ccc(-c3ccccc3)cc2)[C@H](O)[C@H](O)[C@H]1O[C@@H]1O[C@H](CO)[C@H](O)[C@H](O)[C@H]1O [Example 30] |  |  |  | 
5 | 0.78 (≈ 0.702 µM) | 0.78 (≈ 0.702 µM) | 0.78 (≈ 0.702 µM) | 0.78 (≈ 0.702 µM) | 0.78 (≈ 0.702 µM) | CCCCC/C=C/C=C/[C@@H](O)C/C=C/C=C/C(=O)O[C@@H]1[C@@H](O)[C@H](c2c(O)cc(O)cc2CO)O[C@H](CO)[C@H]1O[C@@H]1O[C@H](COC(=O)c2ccc(-c3ccc(OCCC)cc3)cc2)[C@H](O)[C@H](O)[C@H]1O[C@@H]1O[C@H](CO)[C@H](O)[C@H](O)[C@H]1O [Example 42] |  |  |  | 
6 | 12.5 (≈ 12.5 µM) | 12.5 (≈ 12.5 µM) | 6.25 (≈ 6.23 µM) | 12.5 (≈ 12.5 µM) | 12.5 (≈ 12.5 µM) | CCCCC/C=C/C=C/[C@@H](O)C/C=C/C=C/C(=O)O[C@@H]1[C@@H](O)[C@H](c2c(O)cc(O)cc2CO)O[C@H](CO)[C@H]1O[C@@H]1O[C@H](COC(=O)/C=C/c2ccccc2)[C@H](O)[C@H](O)[C@H]1O[C@@H]1O[C@H](CO)[C@H](O)[C@H](O)[C@H]1O [Example 16] |  |  |  | 
7 | 3.12 (≈ 2.76 µM) | 6.25 (≈ 5.53 µM) | 6.25 (≈ 5.53 µM) | 3.12 (≈ 2.76 µM) | 6.25 (≈ 5.53 µM) | CCCCC/C=C/C=C/[C@@H](O)C/C=C/C=C/C(=O)O[C@@H]1[C@@H](O)[C@H](c2c(O)cc(O)cc2CO)O[C@H](CO)[C@H]1O[C@@H]1O[C@H](COC(=O)c2cccc(-c3ccc(-c4ccccc4)cc3)c2)[C@H](O)[C@H](O)[C@H]1O[C@@H]1O[C@H](CO)[C@H](O)[C@H](O)[C@H]1O [Example 34] |  |  |  | 
8 | 0.39 (≈ 0.371 µM) | 1.56 (≈ 1.48 µM) | 0.78 (≈ 0.742 µM) | 1.56 (≈ 1.48 µM) | 0.39 (≈ 0.371 µM) | CCCCC/C=C/C=C/[C@@H](O)C/C=C/C=C/C(=O)O[C@@H]1[C@@H](O)[C@H](c2c(O)cc(O)cc2CO)O[C@H](CO)[C@H]1O[C@@H]1O[C@H](COC(=O)c2ccc3c(c2)-c2ccccc2-3)[C@H](O)[C@H](O)[C@H]1O[C@@H]1O[C@H](CO)[C@H](O)[C@H](O)[C@H]1O [Example 28] |  |  |  | 
9 | 0.78 (≈ 0.755 µM) | 3.12 (≈ 3.02 µM) | 1.56 (≈ 1.51 µM) | 1.56 (≈ 1.51 µM) | 3.12 (≈ 3.02 µM) | CCCCC/C=C/C=C/[C@@H](O)C/C=C/C=C/C(=O)O[C@@H]1[C@@H](O)[C@H](c2c(O)cc(O)cc2CO)O[C@H](CO)[C@H]1O[C@@H]1O[C@H](COC(=O)c2ccc(CCCC)cc2)[C@H](O)[C@H](O)[C@H]1O[C@@H]1O[C@H](CO)[C@H](O)[C@H](O)[C@H]1O [Example 15] |  |  |  | 

Row | SMILES | MIC (Candida albicans 579a; [4]) [µg/mL] | MIC [1, 5] [µg/mL] | MIC [2, 6] [µg/mL] | MIC [3, 7] [µg/mL] | MIC (Candida albicans CCH 442) [µg/mL] | MIC (Candida albicans 579a; Candida albicans, 579A) [µg/mL] | MIC ([1]; Candida albicans, ATCC10231, read-out: MIC I) [µg/mL] | MIC ([2]; Candida albicans, ATCC38247, read-out: MIC IV) [µg/mL] | MIC ([3]; Candida albicans, ATCC62376, read-out: MIC V) [µg/mL]
10 | CCCCC/C=C/C=C/[C@@H](O)C/C=C/C=C/C(=O)O[C@@H]1[C@@H](O)[C@H](c2c(O)cc(O)cc2CO)O[C@H](CO)[C@H]1O[C@@H]1O[C@H](COC(=O)c2ccc3ccc4ccccc4c3c2)[C@H](O)[C@H](O)[C@H]1O[C@@H]1O[C@H](CO)[C@H](O)[C@H](O)[C@H]1O [Example 26] |  |  |  |  | 1.56 (≈ 1.45 µM) | 0.78 (≈ 0.724 µM) | 0.78 (≈ 0.724 µM) | 1.56 (≈ 1.45 µM) | 0.78 (≈ 0.724 µM)

Reference: US5773421A, “Antifungal fusacandins” (Abbott Laboratories, priority 1995, dated 1998)
